Test results published in ChEMBL document CHEMBL1151388, “Isolation and Structure of 14,15-Epoxyprieurianin From the South American Tree Guarea guidona” (1982).
Values after ≈ are worked out from the molar mass of the structure shown. Active and inactive are the calls of the source. No cut-off for these calls is given here.

Assays:
P388 [1] = assay: Cytotoxicity against mouse P388 cells; format: functional; conditions: for EC50: read-out: ED50 (the source's name)
P388 [2] = assay: In vivo cytotoxicity against mouse P388 cells up to 8 mg/kg; format: functional, organism-based; design: dose 8 mg/kg

Compound	EC50 (P388 [1])	Activity (P388 [1])	Activity (P388 [2])
C=C1[C@H]([C@]2(C)[C@@H](OC(C)=O)CC(=O)O[C@](C)(COC(C)=O)[C@@H]2CC(=O)OC)[C@@H](OC=O)[C@H](OC(=O)[C@H](O)[C@H](C)CC)[C@]2(C)[C@@H](c3ccoc3)C[C@@H]3O[C@]132	0.47 µg/mL (≈ 0.629 µM)	–	–
CC1(C)C(=O)C=C[C@]2(C)[C@H]3CC[C@@]4(C)[C@H](c5ccoc5)OC(=O)[C@H]5O[C@]54[C@]3(C)C(=O)C[C@@H]12	–	inactive	–
C=C1[C@@H]([C@@]2(C)[C@@H](OC(C)=O)CC(=O)O[C@](C)(COC(C)=O)[C@@H]2C(=O)OC)[C@@H](OC=O)[C@H](OC(=O)[C@H](O)[C@H](C)CC)[C@@]2(C)[C@H](c3ccoc3)CC(=O)[C@]12O [PRIEURIANIN]	4.4 µg/mL (≈ 5.88 µM)	–	inactive
